Reference: article PMC8765275, “Self-Inhibitory Peptides Targeting the Neisseria gonorrhoeae MtrCDE Efflux Pump Increase Antibiotic Susceptibility” (Antimicrobial Agents and Chemotherapy, 2022)
Read-outs that look alike come from different tables or passages of the source.

Key:
[1] = tested on: N. gonorrhoeae strain WHO K (MtrCDE overexpression); assay: microbe, parasite or virus in culture; assay type: cell-based, Neisseria gonorrhoeae; conditions: for MIC: Neisseria gonorrhoeae, 20 h
Experimental: (§1) Six peptides were tested against N. gonorrhoeae strains with various antimicrobial resistance phenotypes and with either standard MtrCDE expression (strain FA1090) or MtrCDE overexpression (strains WHO K, WHO P, and WHO X [15, 16]) (Table 2). […] Subsequent experiments were conducted with subinhibitory peptide concentrations (20 μg/ml for FA1090; 50 μg/ml for WHO K, WHO P, and WHO X).
(§2) Experiments were performed using a microdilution method in triplicate wells.
[…] For cotreatment assays (peptide plus antibiotic), the antibiotic dilutions were made up in GC broth that contained the peptide at the appropriate concentration. The experiments were performed with peptide-only and antibiotic-only controls. Each well was inoculated with 10 μl of the appropriate N. gonorrhoeae strain at an optical density (absorbance at 600 nm) of 0.1 (∼1 × 10^6 CFU/ml). All experiments were performed with triplicate samples on at least three occasions.

[2] = tested on: N. gonorrhoeae strain FA1090 (standard MtrCDE expression); assay: MIC, broth microdilution (CLSI), antibiotic alone, peptide alone or peptide cotreatment; assay type: cell-based; conditions: Neisseria gonorrhoeae
Experimental: as §1, §2
(§3) High-level resistance, resistance, intermediate resistance, and susceptibility phenotypes were determined per previously determined MIC values ([15]) using the interpretive criteria published by the Swedish Reference Group on Antibiotics (SGRA) ([25]). For cotreatment assays (peptide plus antibiotic), the antibiotic dilutions were made up in GC broth that contained the peptide at the appropriate concentration. The experiments were performed with peptide-only and antibiotic-only controls. Each well was inoculated with 10 μl of the appropriate N. gonorrhoeae strain at an optical density (absorbance at 600 nm) of 0.1 (∼1 × 10^6 CFU/ml). All experiments were performed with triplicate samples on at least three occasions.

[3] = tested on: N. gonorrhoeae strain WHO X (MtrCDE overexpression); assay: microbe, parasite or virus in culture; assay type: cell-based, Neisseria gonorrhoeae; conditions: for MIC: Neisseria gonorrhoeae, 20 h
Experimental: as §1, §2, §3

[4] = tested on: N. gonorrhoeae strain WHO P (MtrCDE overexpression); assay: microbe, parasite or virus in culture; assay type: cell-based, Neisseria gonorrhoeae; conditions: for MIC: Neisseria gonorrhoeae, 20 h; for Reduction of azithromycin MIC compared with that for MtrCDE knockout versus wild-type strains: 50 μg/ml peptide, knockout comparison from ref 6; for Antimicrobial resistance phenotype, AZM, in the presence of peptide: cotreatment with 50 μg/ml peptide, EUCAST breakpoints
Experimental: as §1, §2, §3

[5] = tested on: N. gonorrhoeae strain WHO X ΔmtrE; assay: Antibiotic MIC with or without P-MtrE1, mtrE knockout strain; assay type: cell-based, Neisseria gonorrhoeae
Experimental: (§4) N. gonorrhoeae strains used in this study include FA1090 (standard MtrCDE expression) ([22]), WHO K (MtrCDE overexpression) ([15]), WHO P (MtrCDE overexpression) ([15]), and WHO X (MtrCDE overexpression) ([16]). Wild-type strains were grown on GC agar or in GC broth (Oxoid) supplemented with IsoVitaleX (Bacto) at 37°C in 5% CO2. mtrE knockout strains of N. gonorrhoeae WHO X and WHO P (ΔmtrE) were generated by transforming bacteria with 1 μg of a linear DNA fragment (IDT) containing aminoglycoside 3′-phosphotransferase gene (NCBI accession no. VTT49712.1) flanked by 500-bp terminal fragments of the N. gonorrhoeae FA1090 mtrE gene (GenBank accession no. AE004969.1, positions 1 to 500 and 903 to 1403), as well as the gonococcal DNA uptake sequence ([…]) at the 5′ end ([23]). E. coli strain DH5α, used for cloning, was grown using Luria-Bertani agar or broth (Oxoid) at 37°C. The media were supplemented with 100 μg/ml ampicillin or 50 μg/ml kanamycin, as required.
as §2, §3

[6] = tested on: N. gonorrhoeae strain WHO P ΔmtrE; assay: as above; assay type: cell-based, Neisseria gonorrhoeae
Experimental: as §4, §2, §3

[7] = tested on: N. gonorrhoeae strains FA1090, WHO K, WHO P, WHO X; assay: Antibiotic MIC with peptide cotreatment, summarised over the strains tested; assay type: cell-based, Neisseria gonorrhoeae; conditions: for Reduction of the MICs of the four antibiotics tested on cotreatment: for at least one N. gonorrhoeae strain
Experimental: as §1, §2, §3

[8] = read-out: MIC of AZM (azithromycin)
[9] = WHO K, antibiotic alone, EUCAST breakpoints
[10] = read-out: MIC of CRO (ceftriaxone)
[11] = read-out: MIC of ERY (erythromycin)
[12] = gentamicin is not subject to efflux by MtrCDE
[13] = presence or absence of subinhibitory P-MtrE1 concentrations (0 or 6.5 μg/ml, Fig. 2)

## CC[C@H]1OC(=O)[C@H](C)[C@@H](O[C@H]2C[C@@](C)(OC)[C@@H](O)[C@H](C)O2)[C@H](C)[C@@H](O[C@@H]2O[C@H](C)C[C@H](N(C)C)[C@H]2O)[C@](C)(O)C[C@@H](C)CN(C)[C@H](C)[C@@H](O)[C@]1(C)O [AZM, azithromycin]
[1]; [8]
  MIC: 0.25 µg/mL
[1]; [9]
  Antimicrobial resistance phenotype, AZM: S (S ≤ 0.25)
[2]; read-out: MIC of AZM (azithromycin), antibiotic alone, microdilution per CLSI, GC broth, 20 h, triplicate wells
  MIC: 0.063 µg/mL
[3]; [8]
  MIC: 0.5 µg/mL
[4]; [8]
  MIC: 4 µg/mL

## CO/N=C(\C(=O)N[C@@H]1C(=O)N2C(C(=O)O)=C(CSc3nc(=O)c(=O)[nH]n3C)CS[C@H]12)c1csc(N)n1 [CRO, ceftriaxone]
[1]; [10]
  MIC: 0.031 µg/mL
[1]; [9]
  Antimicrobial resistance phenotype, CRO: S (S ≤ 0.125)
[2]; read-out: MIC of CRO (ceftriaxone), antibiotic alone, microdilution per CLSI, GC broth, 20 h, triplicate wells
  MIC: < 0.0078 µg/mL
[3]; [10]
  MIC: 2 µg/mL
[4]; [10]
  MIC: 0.004 µg/mL

## CC[C@H]1OC(=O)[C@H](C)[C@@H](O[C@H]2C[C@@](C)(OC)[C@@H](O)[C@H](C)O2)[C@H](C)[C@@H](O[C@@H]2O[C@H](C)C[C@H](N(C)C)[C@H]2O)[C@](C)(O)C[C@@H](C)C(=O)[C@H](C)[C@@H](O)[C@]1(C)O [ERY, erythromycin, reference compound]
[2]; antibiotic alone, microdilution per CLSI, GC broth, 20 h, triplicate wells, read-out: MIC of ERY (erythromycin)
  MIC: 0.2 µg/mL
[3]; [11]
  MIC: 2 µg/mL
[4]; [11]
  MIC: 16 µg/mL

## (KFF)3KGSG HLSLIATV [P-MtrE1, self-derived peptide, 8 amino acids of MtrE fused to (KFF)3K cell-permeating peptide and GSG linker]
[5]; [12]
  Impact of peptide on susceptibility to gentamicin: no impact
[5]; [13]
  Change in antibiotic susceptibility to ciprofloxacin or ceftriaxone with peptide: no change
[6]; [12]
  Impact of peptide on susceptibility to gentamicin: no impact
[6]; [13]
  Change in antibiotic susceptibility to erythromycin or azithromycin with peptide: no change
[7]
  Reduction of the MICs of the four antibiotics tested on cotreatment: at least 2 fold
[3]; WHO X wild-type, gentamicin is not subject to efflux by MtrCDE
  Impact of peptide on susceptibility to gentamicin: no impact
[3]; WHO X, 50 μg/ml peptide, knockout comparison from ref 6
  Reduction of ciprofloxacin and ceftriaxone MICs compared with that between MtrCDE knockout and wild-type strains: same magnitude
[3]; WHO X, concentrations as low as
  Peptide concentration able to reduce the MICs of ciprofloxacin and ceftriaxone: ≤ 6.25 µg/mL
[4]; WHO P wild-type, gentamicin is not subject to efflux by MtrCDE
  Impact of peptide on susceptibility to gentamicin: no impact
[4]; WHO P
  Reduction of azithromycin MIC compared with that for MtrCDE knockout versus wild-type strains: same magnitude
  Antimicrobial resistance phenotype, AZM, in the presence of peptide: S (S ≤ 0.25)
[4]; WHO P, concentrations as low as
  Peptide concentration able to reduce the MICs of erythromycin and azithromycin: ≤ 6.25 µg/mL

## (KFF)3KGSGDAAHLSLIATVAKAYFNERY [P-MtrE2, self-derived peptide, 20 amino acids of MtrE fused to (KFF)3K cell-permeating peptide and GSG linker]
[7]
  Reduction of the MICs of the four antibiotics tested on cotreatment: at least 2 fold

## (KFF)3KGSGVFLVPLFY [P-MtrD1, self-derived peptide, 8 amino acids of MtrD fused to (KFF)3K cell-permeating peptide and GSG linker]
[7]
  Reduction of the MICs of the four antibiotics tested on cotreatment: at least 2 fold

## (KFF)3KGSGVMKLRRQI [P-MtrC1, self-derived peptide, 8 amino acids of MtrC fused to (KFF)3K cell-permeating peptide and GSG linker]
[7]
  Reduction of the MICs of the four antibiotics tested on cotreatment: at least 2 fold
[4]; WHO P
  Reduction of azithromycin MIC compared with that for MtrCDE knockout versus wild-type strains: same magnitude
  Antimicrobial resistance phenotype, AZM, in the presence of peptide: I

## HLSLIATV [P-MtrE1a]
[7]; control peptides, any strain against which P-MtrE1 had an effect
  Effect of peptide on susceptibility to the antibiotics tested: not able to increase susceptibility to any antibiotic
